Laboratory results reported in US20260207759A1, “COMPOSITION OF CD40-BINDING MOLECULE AND PHARMACEUTICAL USE THEREOF” (SUZHOU SUNCADIA BIOPHARMACEUTICALS CO., LTD., priority 2022, published 2026).
Where two headings read alike, the source gives them in different places.

Assays:
[1] = system: human CD40 transgenic mice; assay: Mouse T cell-dependent humoral immune response (TDAR) model, anti-KLH specific IgG; type: in vivo; conditions: 0.3 mpk BIW ip, hCD40 transgenic mice (IgG1 control 1 mg/kg)
Description: On day 0 of the experiment, one of the mice in each group was subjected to blood collection followed by intraperitoneal injection. On day 1, each mouse was intraperitoneally injected with 50 μg of KLH (KLH:complete Freund's adjuvant (CFA)=1:1 emulsified immune complex) for immunization. On day 15 of the experiment, each mouse was intraperitoneally injected with 50 μg of KLH (KLH:incomplete Freund's adjuvant (IFA)=1:1 emulsified immune complex) for a second immunization. Each group was intraperitoneally injected twice a week, and blood samples of about 150 μL were collected from the orbital venous plexus on days 7, 14, 21, and 28. Whole blood was left to stand at room temperature for 1-4 h and centrifuged at 7000 rpm at 4° C. for 10 min to separate serum, and the serum was stored at −80° C. for later use.
Mouse serum was separated weekly and assayed by ELISA for the anti-KLH specific IgG level.

CD40 = CD40 (Homo sapiens, UniProt P25942); assay: B cell activation assay system (human PBMCs, CD40L-induced CD19+CD69+); type: cell-based; set-up: endogenous in cells; host or cells: human PBMCs (B cells); DCs differentiated from human CD14+ monocytes; conditions: CD40L stimulation overnight
Description: CD40 is highly expressed in B cells, and CD40L, upon binding to CD40, can induce B cell activation and up-regulate the expression of a series of activation markers. CD40 antagonistic antibodies block the binding of CD40L to CD40, thereby eliminating the immune activation process of B cells.
Human PBMCs were plated at 2E5 cells/well and 50 μL/well into a 96-well cell culture plate (the medium was RPMI-1640 containing 10% FBS and 1% penicillin-streptomycin). Serially diluted test antibodies were added at 50 μL/well, and the cells were co-incubated at 37° C. in 5% CO2 for 0.5 h. CD40L-his and an anti-His antibody were added to each well for overnight stimulation. The following day, the plate was centrifuged, the supernatant was removed, and the cells were washed twice with FACS buffer and stained at room temperature for 15 min with 100 μL of Fixable viability dye EF780 (Invitrogen, 65086514) diluted at 1:1000. The cells were washed twice and then blocked at room temperature for 10 min with 100 μL of human Fc blocker (BD, 564220) diluted at 1:200. After centrifugation, the cells were incubated at 4° C. for 0.5 h with flow cytometry antibodies (PerCP/Cyanine5.5 anti-human CD19 (Biolegend, 302230), and APC anti-human CD69 (Biolegend, 310910)) diluted at 1:200. After centrifugation, the supernatant was removed, the cells were washed twice with FACS buffer and then resuspended in 200 μL of PBS, and the fluorescence intensity on the cell surface was measured by a flow cytometer (BD FACS Celesta).
With reference to the method in Example 10, the inhibitory activity of the anti-CD40 antibody 9E6-L4H2-AAYTE carrying the AAYTE mutation in the Fc in the B cell activation assay system was measured.

CD40, sequence (P25942 21-277): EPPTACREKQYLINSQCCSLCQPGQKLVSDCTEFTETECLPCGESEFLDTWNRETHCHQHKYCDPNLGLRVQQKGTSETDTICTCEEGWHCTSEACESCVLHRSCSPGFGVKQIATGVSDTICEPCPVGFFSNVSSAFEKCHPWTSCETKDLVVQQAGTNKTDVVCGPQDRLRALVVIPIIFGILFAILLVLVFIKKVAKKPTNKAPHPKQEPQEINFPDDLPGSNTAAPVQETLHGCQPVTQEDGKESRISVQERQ

Q: How did the “anti-KLH specific IgG, Day 7” value [1] turn out when “CFZ533: anti-CD40 antagonistic antibody CFZ533 (i.e., iscalimab), positive control, variable regions from U.S. Pat. No. 8,277,810B” was run?
A: 0.04 ± 0.01

Q: And the “anti-KLH specific IgG, Day 14” value [1]?
A: 30.9 ± 10.8

Q: What about the “anti-KLH specific IgG, Day 21” value [1] of the same substance?
A: 845 ± 423

Q: And the “anti-KLH specific IgG, Day 28” value [1]?
A: 3043 ± 1600

Q: And the “CD19+CD69+ % Maximum inhibition rate” value (CD40)?
A: 95%

Q: And the “CD19+CD69+ MFI Maximum inhibition rate” value (CD40)?
A: 110%

Q: And the IC50 (CD40; read-out: CD19+CD69+ % IC50)?
A: 0.14 nM

Q: What about the IC50 (CD40; read-out: CD19+CD69+ MFI IC50) of the same substance?
A: 0.07 nM
